Experimental data from patent publication EP3892734B1, “SCREENING METHODS AND THERAPEUTIC APPLICATIONS BASED ON BACTERIAL MOTILITY INHIBITION” (Ludwig-Maximilians-Universität München, priority 2020, dated 2021).
Entries after “also recorded” stand apart in the source; their conditions may differ.

How the values were obtained:
H. pylori = experiment: therapeutic treatment in chronic H. pylori mouse infection model (cfu counts, cagL PCR); assay type: in vivo, C57B/L6 mice; settings: for reduction of colony-forming units (cfus) / bacterial loads in stomach: metronidazole 14.3 mg/kg/day, intragastric gavage
Method: 6-8 weeks old specific pathogen-free C57B/L6 mice were obtained from Charles River Laboratories. They were acclimatized to the new surroundings for one week before starting the assays. For the whole duration of the experiment, mice had access to sterile chow and sterile water ad libitum. In week one of the experiment, H. pylori was administered at 3×10^8 bacteria per mouse per inoculum (100 µl) on two days with one day of break in between. The proof-of-principle treatment was started two weeks after the end of the inoculation week, assuming a stable infection at this time point. The mice were treated in separate groups (8-14 animals per group), as outlined in the results, with compound(s), antibiotic (metronidazole at 14.3 mg/kg/day), a combination of both antibiotic and compound (for concentrations, see Results), or mock-treated once daily over seven consecutive days by intra-gastric gavage. After the treatment week, the mice were kept for another two weeks under normal housing and feeding conditions with sterilized chow and sterile water ad libitum. At the end of the assay period (week seven), the mice were necropsied by cervical dislocation under CO2 anesthesia. The animal experiments were authorized under German federal law by the LAVES (Lower Saxony Government Authority).
Then, BL2 was further tested for therapeutic efficacy in a mouse model of chronic H. pylori infection (Fig. 5). Six groups of mice (10 mice per group in each of the four infected and/or treated groups, and six mice in both of the control groups) were established in this mouse treatment trial. For the treatment groups, mice were infected in week one (using ca. 3×10^8 bacteria per animal; Methods), and the chronic infection was manifested for two more weeks. The once-daily treatment (intragastric gavage) started in week four on seven consecutive days. For the treatment groups, three H. pylori-infected groups were evaluated in parallel. One dose of treatment was given daily.
Group one was treated with metronidazole (14.3 mg/kg/day) only, an established anti-H. pylori antibiotic. The antibiotic concentration corresponds to concentrations routinely used in human treatment. Group two was treated with metronidazole (dosed at 14.3 mg/kg/day) and BL2 (10 mg/kg/day) in combination, and group three received BL2 (10 mg/kg/day) only. In addition, one infected and mock-treated group was kept as positive control, and two mock-infected groups were set aside, one for administering BL2 only (10 mg/kg/day; microbiota compound control) and one which was mock-infected and mock-treated (microbiota null control).
The read-out of successful treatment was the reduction of colony-forming units (cfus) of bacteria in infected and treated mice, over infected, non-treated, mice, at the end of the experiment. […] All mice in the infected positive control group were colonized (both cfu counts and PCR-positive), although the cfu counts in three positive animals were rather low.

H. pylori N6 = experiment: MIC/MBC determination in broth culture; assay type: cell-based, Helicobacter pylori; settings: for classical antibacterial activity (growth / metabolic inhibition) against H. pylori: result in words
Method: In order to distinguish compounds having anti-flagellar activity from compounds having classical antibiotic effects (i.e., bacteriostatic and/or bactericidal effects), the test compounds were additionally subjected to MIC/MBC testing. Helicobacter pylori were grown in liquid culture by harvesting bacteria from overnight-grown plates into brain-heart infusion medium (BHI, Oxoid) with 3% yeast extract and 5% horse serum, added to an initial inoculum of OD600 = 0.05. 10 ml of this bacterial suspension were incubated as a preculture in a 50 ml Falcon tube with lid ajar inside of an air-tight incubation jar and a microaerobic atmosphere generated by Merck Anaerocult C gas generating packs at 37°C and shaking with 175 rpm overnight. On the following day, prior to the beginning of the experiment, the OD600 of the liquid culture was routinely below 1, in mid-exponential growth phase.
Next, 200 µl of the bacterial suspension were added per well of a 24-well-plate (Greiner Cellstar #662160) diluted to an initial OD600 of 0.07. Compounds (in DMSO) were added to the sample wells in duplicates in a serial dilution of starting at an upper limit of 256 µg/ml. Pure DMSO was added to all wells for a concentration of 2% DMSO per well. The multiwell plate (with lid) was incubated inside of an incubation jar and a microaerobic atmosphere generated by Merck Anaerocult C sachets at 37°C and shaking with 175 rpm for 24 h. For measurement, the duplicates were pooled after visual inspection, diluted 1:3 in medium and measured in plastic cuvettes as an OD at 600 nm. The detection limit of growth was defined as an OD600 of 0.05. […] This MIC determination method can also be downscaled, further automated and measured in 96- or 384-well plates in a micro-well plate incubator equipped with a gas chamber for microaerobic bacterial incubation.
For evaluation of the "minimum bactericidal concentration" (MBC), bacteria from the MIC experiment were streaked and plated at different serial dilutions on blood agar, including the lowest compound concentration where bacterial growth was still measurable by OD600 (OD600 ≥ 0.05), and three compound concentration levels above (if possible). The blood agar plates were incubated at 37°C in an […], either inside an incubation jar (Oxoid) with an Anaerocult C gas pack (Merck), or in an anaerobic cabinet aerated with a microaerobic gas mix as outlined above (Scholzen).
For evaluation of the MBC, bacteria from the MIC experiment were plated as streaks or in appropriate dilutions on Columbia blood agar plates, using inoculation loops. The plates were incubated at 37°C overnight to detect growth.

[1] = solubility observed when preparing doses for MTD testing; assay type: physicochemical; settings: dosing preparations for MTD testing
Method: (§1) The active compounds BL1 and BL2, which were chosen to be tested in a preclinical model, were initially tested for toxicity in the mouse model by […] (MTD) testing. The MTD testing (MTD Tox56000 protocol, Eurofins Panlabs) was performed according to international standards, as will be briefly outlined in the following: Three mice were dosed with the compounds at each intended dose. BL1 active compound was prepared in a suitable stock concentration in 5% DMSO, or 5% DMSO, 10% Solutol, 85% PBS (for the 40 and 60 mg/kg/day), and dosed at 10, 30, 40, or 60 mg/kg/day by intraperitoneal injection (125 µl for each dose). BL2 active compound was dosed orally, at 10 mg/kg/day, 30 mg/kg/day, or 60 mg/kg/day, diluted in 5% DMSO, 2.5% carboxy-methyl-cellulose (CMC), in PBS, also at 125 µl per dose per animal. The dosing in each case started with the lowest dose in the three animals, followed by observation for up to 72 h. Subsequently, the next higher dose was administered to a different set of three mice, etc.. Both compounds to be used subsequently for the in vivo therapeutic administration were verified to be non-toxic to mice below an administered dose of 40 mg/kg per day.

[2] = minimal toxic dose (MTD) testing in mice; assay type: in vivo; settings: oral, up to 60 mg/kg/day, listed as BL2
Method: as §1

[3] = BL2 10 mg/kg/day, once daily, 7 days, versus infected control

Cn1c(CSC(=N)N)c(Cl)c(=O)n1-c1ccccc1 [Active 2]
reduction of colony-forming units (cfus) / bacterial loads in stomach (H. pylori; BL2 10 mg/kg/day, once daily, 7 days, versus infected control, listed as BL2): therapeutically effective; also recorded: significant activity in vivo; also recorded: significant therapeutic activity; also recorded: significantly effective in reducing bacterial loads
reduction of colony-forming units (cfus) / bacterial loads in stomach (H. pylori; BL2 10 mg/kg/day, once daily, 7 days, versus infected control, listed as active 2/BL2): therapeutically active
cfu counts in the antrum (H. pylori; [3]): statistically significant reduction of cfu counts in the antrum
cfus in the corpus (H. pylori; [3]): trend towards reduced cfus
gene-specific (cagL) PCR signal in stomach homogenates (H. pylori; two weeks post-treatment, listed as BL2): strong reduction of gene-specific PCR signal; also recorded: below detection levels
MIC/MBC (H. pylori N6; H. pylori): > 256 µg/mL
MIC (H. pylori N6; Helicobacter pylori, N6): > 256 µg/mL
classical antibacterial activity (growth / metabolic inhibition) against H. pylori (H. pylori N6): did not inhibit growth or metabolic activity of H. pylori
classical antibacterial activity (growth / metabolic inhibition) against H. pylori (H. pylori N6; listed as BL2): not active against H. pylori in a classical antibacterial (antibiotic) manner
solubility [1]: very well soluble
toxicity (MTD testing) [2]: did not show any toxicity; also recorded: not toxic
